Laboratory results from US12251465B2, “Dosage form comprising structured solid-solution framework of sparingly-soluble drug and method for manufacture thereof” (priority 2018, dated 2025).
Values after ≈ are worked out from the molar mass of the structure shown.

Assay: Solubility of drug in the dissolution fluid and excipient-fluid solutions (UV absorption)
Type: physicochemical
Conditions: 37° C.
Experimental: For determining the solubility of drug in the dissolution fluid, 1 mg ibuprofen particles were put in a UV cuvette. The cuvette was then filled with 2.5 ml of the dissolution fluid (0.1 M HCl in deionized water at 37° C.). The concentration of dissolved drug was monitored by UV absorption using a Perkin Elmer Lambda 1050 Spectrophotometer. Between measurements, the cuvette was flipped at a frequency of 0.5 Hz to stir the solution. The temperature of the solution in the cuvette was maintained at 37° C., during the experiment. When the drug concentration in the solution reached its equilibrium value the drug solubility was recorded.
The solubility of drug in excipient-dissolution fluid solutions was determined by immersing 1.5 mg of the ibuprofen particles and different amounts (1.5-200 mg) of excipient in 2.5 ml dissolution fluid. The excipient was either HPMC or a mixture of 67 wt % HPMC and 33 wt % polyoxyl stearate. The dissolution fluid was 0.1 M HCl in deionized water.

[1] = 1 mg ibuprofen particles in 2.5 ml stirred dissolution fluid

## CC(C)Cc1ccc(C(C)C(=O)O)cc1 (stereo not drawn) [ibuprofen]
[1]
  concentration of dissolved drug at 3000 minutes (50 h): 40000 ng/mL
  time to reach the solubility c0: ≤ 15,000 minutes
Dissolution fluid (0.1 M HCl in deionized water), simulated gastric fluid, thermodynamic from solid, 0.1 M HCl in deionized water, no excipient, read-out: solubility of ibuprofen in the dissolution fluid, c0
  solubility: ~50 µg/mL (≈ 242 µM)
